These results are taken from publication PMC7400207, “It Takes Two: Dimerization Is Essential for the Broad-Spectrum Predatory and Defensive Activities of the Venom Peptide Mp1a from the Jack Jumper Ant Myrmecia pilosula” (Biomedicines, 2020).

In brackets after ≈: the same amount, converted by molar mass. Several values for one entry are separate records, joined by “and”; a condition that tells them apart may be missing. Equal entries are not always repeated.

In data set [1] the test system is HEK293 cells. As to conditions: HEK293, 24 h, resazurin; cited from earlier work. How it is done:
Table 2 Summary of bioassay data for synthetic Mp1a and analogues, including effective concentration (EC50) for activation of F11 cells, concentrations that caused 50% inhibition (IC50) for inhibition of larval development of H. contortus; median lethal dose (LD50) for lethal insecticidal effects on D. melanogaster; concentrations required to induce 50% cell death (CC50) for effects on viability o | column: Cytotoxicity (CC50 µM) ^b

The subject of data set [2] is Drosophila melanogaster. As to the kind of experiment: Drosophila melanogaster microinjection assay. The class given is in vivo. As to conditions: intrathoracic injection, 50 nL, adult female flies, lethality at 24 h; three dose-response curves, ± SEM. As for the experimental part:
The insecticidal activity of the chemically synthesized 1a and analogues thereof were determined by injection into adult female D. melanogaster aged 3–5 days (mass 0.7–0.9 mg) as described previously. Analogues were dissolved in water and intrathoracically injected using pulled glass capillaries at a volume of 50 nL per fruit fly, and the results were compared against an equivalent injection volume of water alone. All injections were performed in the morning or early afternoon. At 24 h post-injection flies were monitored for lethality. Dose–response curves were constructed using 7–10 doses per analogue (each dose tested in eight flies) and three separate dose–response curves were constructed for each analogue. The lethality in the groups receiving the analogues were adjusted using the respective control group lethality using the Henderson-Tilton formula [20]. The median lethal dose (LD50) of each analogue was calculated based on the three dose–response curves using GraphPad Prism 8.0 [21]. One-way ANOVA followed by Dunnett’s multiple comparison test were used to compare LD50 values.

For data set [3], the system named is E. coli ATCC 25922. As to conditions: taken from Dekan et al.; cited from earlier work.
For data set [4], the system named is S. aureus NARSA-VRS10. As to conditions: taken from Dekan et al.; cited from earlier work.
In data set [5] the test system is S. aureus ATCC 43300. As to conditions: taken from Dekan et al.; cited from earlier work.
Data set [6] concerns K. pneumoniae ATCC BAA-2146. As to conditions: taken from Dekan et al.; cited from earlier work.
Data set [7] concerns S. aureus NRS 1. As to conditions: taken from Dekan et al.; cited from earlier work.
Data set [8] deals with P. aeruginosa ATCC 27853. As to conditions: taken from Dekan et al.; cited from earlier work.

Turning to `CC[C@H](C)[C@H](N)C(=O)N[C@@H](CC(=O)O)C(=O)N[C@@H](Cc1c[nH]c2ccccc12)C(=O)N[C@@H](CCCCN)C(=O)N[C@@H](CCCCN)C(=O)N[C@H](C(=O)N[C@@H](CC(=O)O)C(=O)N[C@@H](Cc1c[nH]c2ccccc12)C(=O)N[C@@H](CCCCN)C(=O)N[C@@H](CCCCN)C(=O)N[C@H](C(=O)N[C@@H](CO)C(=O)N[C@@H](CCCCN)C(=O)N[C@@H](CCCCN)C(=O)N[C@H](C(=O)N[C@H]1CSSC[C@@H](C(=O)N[C@@H](CCCCN)C(=O)N[C@@H](CCCCN)C(=O)N[C@H](C(=O)N[C@@H](CC(C)C)C(=O)N[C@@H](CCCCN)C(=O)N[C@@H](CCC(N)=O)C(N)=O)C(C)C)NC(=O)[C@H](C(C)C)NC(=O)[C@H]([C@@H](C)O)NC(=O)[C@H](CCCCN)NC(=O)[C@H](C(C)C)NC(=O)[C@H](CC(C)C)NC(=O)[C@H](C(C)C)NC(=O)[C@@H](NC(=O)[C@@H](NC(=O)CNC(=O)[C@H](CCCCN)NC(=O)[C@H](CO)NC(=O)[C@@H](NC(=O)[C@H](CC(C)C)NC(=O)CNC(=O)[C@@H](NC(=O)[C@@H](N)CC(C)C)[C@@H](C)CC)C(C)C)[C@@H](C)O)CSSC[C@@H](C(=O)N[C@@H](CCCCN)C(=O)N[C@@H](Cc2ccccc2)C(=O)N[C@@H](CC(C)C)C(N)=O)NC(=O)[C@H](C)NC(=O)[C@H](CCCCN)NC(=O)[C@H](CC(C)C)NC(=O)[C@H](CCSC)NC(=O)[C@H](C(C)C)NC(=O)[C@H](CCCCN)NC1=O)[C@@H](C)O)C(C)C)C(C)C` [Analogue 1a, ∆-myrtoxin-Mp1a], the “Cytotoxicity (CC50)” value in data set [1] was 600 nM. Further, the “Insecticidal Activity (LD50)” value in data set [2] is 260 pmol/g and 260.1 ± 16.6 pmol/g. Besides, the minimal inhibitory concentration (MIC) in data set [3] was 0.1 to 0.2 µM; in data set [4], 0.8 µM (≈ 4.49 µg/mL); in data set [5], 0.8 µM (≈ 4.49 µg/mL); in data set [6] it was 0.1 to 0.2 µM; in data set [7] it was 3.2 µM (≈ 17.9 µg/mL); in data set [8], 0.4 to 0.8 µM.
